The text below walks through data of patent US20240090503A1, “FUNGICIDAL OXADIAZOLES AND THEIR MIXTURES” (FMC CORPORATION, priority 2020, published 2024).

Holding throughout (format): in vivo
For test [1], the system named is Phakopsora pachyrhizi (the causal agent of Asian soybean rust). The test is described as follows: Test E: compounds alone and mixtures sprayed on soybean seedlings, Asian soybean rust, observed and Colby-expected disease control. Details: key to Test E Obsd: 100 = 100% disease control, 0 = no disease control. From the text:
The general protocol for preparing test compositions for TEST E was as follows: Compound 316, Compound 376, Compound 225, Compound 229, Compound 257, Compound 394, Compound 506, Compound 507, Compound 508, Compound 509, Compound 511, Compound 512, methyl N-[[5-[1-[2,6-difluoro-4-(1-methylethyl)phenyl]-1H-pyrazol-3-yl]-2-methylphenyl]methyl]carbamate (b54.11a), methyl N-[[5-[l-(4-cyclopropyl-2,6-difluorophenyl)-1H-pyrazol-3-yl]-2-methylphenyl]methyl]carbamate (b54.11d), ethyl 1-[[4-[[(1Z)-2-ethoxy-3,3,3-trifluoro-1-propen-1-yl]oxy]phenyl]methyl]-1H-pyrazole-4-carboxylate (b54.12a), ethyl 1-[[4-[[2-(trifluoromethyl)-1,3-dioxolan-2-yl]methoxy]phenyl]methyl]-1H-pyrazole-4-carboxylate (b54.13a), azoxystrobin, benzovindiflupyr, bixafen, chlorothalonil, cyproconazole, epoxiconazole, fenpropidin, fenpropimorph, fluindapyr, flutriafol, fluxapyroxad, inpyrfluxam, metominostrobin, picoxystrobin, prothioconazole, pydiflumetofen, pyraclostrobin, tebuconazole and trifloxystrobin were obtained as unformulated, technical-grade materials. Copper hydroxide and mancozeb was obtained as a formulated product marketed under the trademarks KOCIDE 3000 and MANZATE, respectively. Unformulated materials were first dissolved in acetone and then suspended at the desired concentration (in ppm) in acetone and purified water (50/50 mixture by volume) containing 250 ppm of the surfactant Trem® 014 (polyhydric alcohol esters). Formulated materials were dispersed in sufficient water to give the desired concentration, and neither organic solvent nor surfactant was added to the suspension. The resulting test mixtures were then used in TEST E. The tests were run on four individual plants and the results reported as the mean average of the four plants.
The presence of a synergistic effect between two active ingredients can be established with the aid of the Colby equation (see Colby, S. R. “Calculating Synergistic and Antagonistic Responses of Herbicide Combinations”, Weeds, (1967), 15, 20-22):
Using the method of Colby, the presence of a synergistic interaction between two active ingredients is established by first calculating the predicted activity, p, of the mixture based on activities of the two components applied alone. If p is lower than the experimentally established effect, synergism has occurred. In the equation above, A is the fungicidal activity in percentage control of one component applied alone at rate x. The B term is the fungicidal activity in percentage control of the second component applied at rate y. The equation estimates p, the expected fungicidal activity of the mixture of A at rate x with B at rate y if their effects are strictly additive and no interaction has occurred.
The test mixture was sprayed to the point of run-off on soybean seedlings. The following day the seedlings were inoculated with a spore suspension of Phakopsora pachyrhizi (the causal agent of Asian soybean rust) and incubated in a saturated atmosphere at 22° C. for 24 h and then moved to a growth chamber at 22° C. for 8 days, after which time visual disease ratings were made.
Results for Test E are given below in Tables A-1 through K-2. Each table corresponds to a set of evaluations performed together at the same time. In each table, a rating of 100 indicates 100% disease control and a rating of 0 indicates no disease control (relative to the controls). Columns labeled “Obsd” indicate the average of results observed from test run on four individual plants. Columns labeled “Exp” indicate the expected value for each treatment mixture using the Colby equation, as described above.

Test [2] has as its system Puccinia recondita f. sp. tritici (the causal agent of wheat leaf rust). The experiment in a line: Test C: preventive spray on wheat seedlings, wheat leaf rust, visual disease rating. Particulars: Puccinia recondita, 168 h, wheat seedlings; for pest or weed control at 10 µg/mL: test suspension 10 ppm, read-out: Test C disease control rating. The method, boiled down: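 Wheat seedlings sprayed to run-off with compound in acetone/water (50/50) with 250 ppm PEG400, then inoculated with spores the following day. After 24 h saturated humidity at 20° C. and 6 days in growth chamber at 20° C., disease rated visually as % control relative to untreated controls.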

The subject of test [3] is Phakopsora pachyrhizi (the causal agent of Asian soybean rust). The test is described as follows: Test A: preventive spray on soybean seedlings, Asian soybean rust, visual disease rating. The conditions noted are these: Phakopsora pachyrhizi, 216 h, soybean seedlings, 100 = 100% disease control, 0 = no control; for pest or weed control at 10 µg/mL: test suspension 10 ppm, read-out: Test A disease control rating. Summed up:
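Compound in acetone/water (50/50) with 250 ppm PEG400 sprayed to run-off on soybean seedlings; inoculated next day with Phakopsora pachyrhizi spores. Held 24 h at 22° C in saturated atmosphere, then 8 days in a 22° C growth chamber before visual rating as % disease control relative to controls.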

The subject of test [4] is Zymoseptoria tritici (the causal agent of wheat leaf blotch). The experiment in a line: Test B: preventive spray on wheat seedlings, wheat leaf blotch, visual disease rating. The conditions noted are these: Zymoseptoria tritici, 456 h; test suspension 250 ppm; wheat seedlings. The method, boiled down:
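This is a preventive test: spray application preceded Zymoseptoria tritici spore inoculation by one day. Test suspensions were in acetone/water with 250 ppm PEG400 surfactant, at the listed ppm rate. After 48 h saturated humidity at 24° C and 17 days at 20° C, visual ratings scored control from 0 to 100%.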

Setting [5] is: Phakopsora pachyrhizi, Compound 508 alone, read-out: Test E Obsd.
Setting [6] is: Phakopsora pachyrhizi, applied alone, read-out: Test E Obsd.

Like-named read-outs stand apart in the source and are kept apart here.

On to `O=C(NCC(F)F)c1coc(Cc2ccc(-c3noc(C(F)(F)F)n3)cc2)n1` [Compound 225, N-(2,2-difluoroethyl)-2-[[4-[5-(trifluoromethyl)-1,2,4-oxadiazol-3-yl]phenyl]methyl]-4-oxazolecarboxamide], for which the pest or weed control at 0.589 ppm in test [1] (Phakopsora pachyrhizi, applied alone, 0.589 ppm, read-out: Test E Obsd) was found to be 68%. Also, the pest or weed control at 10 µg/mL in test [2] and in test [3] was 100% in each case. In addition, in test [4], the pest or weed control at 250 µg/mL is 99%.
On to `N#CCCNC(=O)c1coc(Cc2ccc(-c3noc(C(F)(F)F)n3)cc2)n1` [Compound 229, N-(2-cyanoethyl)-2-[[4-[5-(trifluoromethyl)-1,2,4-oxadiazol-3-yl]phenyl]methyl]-4-oxazolecarboxamide], for which the pest or weed control at 0.964 ppm in test [1] (Phakopsora pachyrhizi, applied alone, 0.964 ppm, read-out: Test E Obsd) turned out to be 59%. The pest or weed control at 1.915 ppm in test [1] (Phakopsora pachyrhizi, applied alone, 1.915 ppm, read-out: Test E Obsd) came out at 77%. The pest or weed control at 10 µg/mL in test [2] and in test [3] was 100% throughout. For the same compound, the pest or weed control at 250 µg/mL in test [4] was determined as 94%.
As for `COCCNC(=O)c1coc(Cc2ccc(-c3noc(C(F)(F)F)n3)cc2)n1` [Compound 257, N-(2-methoxyethyl)-2-[[4-[5-(trifluoromethyl)-1,2,4-oxadiazol-3-yl]phenyl]methyl]-4-oxazolecarboxamide], the pest or weed control at 0.914 ppm in test [1] (Phakopsora pachyrhizi, applied alone, 0.914 ppm, read-out: Test E Obsd) came out at 27%. In addition, the pest or weed control at 10 µg/mL in test [2] and in test [3] was 100% each time. Moreover, the pest or weed control at 250 µg/mL in test [4] is 99%.
As to `CCNC(=O)c1cnn(COCc2ccc(-c3noc(C(F)(F)F)n3)cc2)c1` [Compound 508, N-ethyl-1-[[[4-[5-(trifluoromethyl)-1,2,4-oxadiazol-3-yl]phenyl]methoxy]methyl]-1H-pyrazole-4-carboxamide], the pest or weed control at 0.855 ppm in test [1] (setting [5]) was 0%; in test [1] (setting [6]) it was 23%. Besides, the pest or weed control at 1.716 ppm in test [1] (setting [5]) was 52%; in test [1] (setting [6]), 60%. Also, the pest or weed control at 10 ppm stood at 100% in test [2] (10 ppm test suspension, 100 = 100% disease control, 0 = no control) and 100% in test [3] (10 ppm test suspension).
In the case of `CO/C=C(/C(=O)OC)c1ccccc1COc1cccc(C(F)(F)F)n1` [picoxystrobin, reference compound], the “Test E Obsd (disease control rating)” value in test [1] (Table A-1, component (b) alone: b54.13a 1.422, b54.12a 0.303, b54.11a 0.403, picoxystrobin 20.596 ppm) is 73%; in test [1] (Table A-1, component (b) alone: b54.13a 2.276, b54.12a 0.489, b54.11a 0.652, picoxystrobin 38.865 ppm) it was 75%; in test [1] (Table A-2, component (b) alone: b54.13a 1.422, b54.12a 0.303, b54.11a 0.403, b54.11d 0.346, picoxystrobin 20.596 ppm) it was 73%; in test [1] (Table A-2, component (b) alone: b54.13a 2.276, b54.12a 0.489, b54.11a 0.652, b54.11d 0.764, picoxystrobin 33.865 ppm), 75%. In addition, the “Test E Obsd” value in test [1] (applied alone, 20.596 ppm) is 28; in test [1] (applied alone, 33.865 ppm), 43; in test [1] (applied alone, 33.875 ppm), 43; in test [1] (picoxystrobin alone, 20.596 ppm) it was 28; in test [1] (picoxystrobin alone, 33.865 ppm) it was 43.
Regarding `OC(Cc1ccccc1Cl)(Cn1nc[nH]c1=S)C1(Cl)CC1` (stereo not shown) [prothioconazole, reference compound], the pest or weed control at 10.165 ppm in test [1] (Phakopsora pachyrhizi, applied alone, 10.165 ppm, read-out: Test E Obsd) was determined as 34%. For the same compound, the pest or weed control at 16.339 ppm in test [1] (Phakopsora pachyrhizi, applied alone, 16.339 ppm, read-out: Test E Obsd) was determined as 56%.
Regarding `CON(C(=O)c1cn(C)nc1C(F)F)C(C)Cc1c(Cl)cc(Cl)cc1Cl` (stereo not shown) [pydiflumetofen, reference compound], the “Test E Obsd (disease control rating)” value is given as 0% in test [1] (Table E-1, component (b) alone: epoxiconazole 46.795, pydiflumetofen 70.950 ppm); 73% in test [1] (Table E-1, component (b) alone: epoxiconazole 89.631, pydiflumetofen 135.850 ppm); 0% in test [1] (Table E-2, component (b) alone: epoxiconazole 46.795, pydiflumetofen 70.950 ppm); 73% in test [1] (Table E-2, component (b) alone: epoxiconazole 89.631, pydiflumetofen 135.850 ppm); 49% in test [1] (Table G-1, component (b) alone: pydiflumetofen 41.364, pyraclostrobin 45.860, metominostrobin 29.673 ppm); 36% in test [1] (Table G-1, component (b) alone: pydiflumetofen 128.793, pyraclostrobin 137.503, metominostrobin 86.003 ppm). Moreover, the “Test E Obsd (disease control rating)” value is on record as 49% in test [1] (Table G-2, component (b) alone: pydiflumetofen 41.364, pyraclostrobin 45.860, metominostrobin 29.673 ppm) and 36% in test [1] (Table G-2, component (b) alone: pydiflumetofen 128.793, pyraclostrobin 137.503, metominostrobin 86.003 ppm).
Consider inpyrfluxam [reference compound], for which the “Test E Obsd” value in test [1] (inpyrfluxam alone, 0.448 ppm) was determined as 56; in test [1] (inpyrfluxam alone, 1.059 ppm), 79.
